Test results published in the CheMixHub viscosity set.
Several values for one entry are separate records, joined by “and”; a condition that tells them apart may be missing. Identical values can stand only once.

Experiment: xn = mol fraction of the nth substance listed

OCCNCCO + O
Conditions | viscosity
293.15 K, 101 kPa, x1 = 0.15 | 12.5 mPa·s
293.15 K, 101 kPa, x1 = 0.34 | 91.2 mPa·s
293.15 K, 101.3 kPa, x1 = 0.02 | 1.499 mPa·s
293.15 K, 101.3 kPa, x1 = 0.04 | 2.204 mPa·s
293.15 K, 101.3 kPa, x1 = 0.1 | 6.515 mPa·s and 12.37 mPa·s
293.15 K, 101.3 kPa, x1 = 0.2 | 25.81 mPa·s
293.15 K, 101.3 kPa, x1 = 0.3 | 53.68 mPa·s
293.15 K, 101.3 kPa, x1 = 0.4 | 143.3 mPa·s
293.15 K, 101.3 kPa, x1 = 0.6 | 353.7 mPa·s
293.15 K, 101.33 kPa, x1 = 0.019 | 1.427 mPa·s
293.15 K, 101.33 kPa, x1 = 0.041 | 2.171 mPa·s
298.15 K, 101 kPa, x2 = 0.9 | 5.29 mPa·s
298.15 K, 101 kPa, x2 = 0.9316 | 3.1 mPa·s
298.15 K, 101.3 kPa, x1 = 0.02 | 1.259 mPa·s
298.15 K, 101.3 kPa, x1 = 0.04 | 1.875 mPa·s
298.15 K, 101.3 kPa, x1 = 0.07 | 3.04 mPa·s
298.15 K, 101.3 kPa, x1 = 0.1 | 5.221 mPa·s and 9.782 mPa·s
298.15 K, 101.3 kPa, x1 = 0.2 | 19.24 mPa·s
298.15 K, 101.3 kPa, x1 = 0.3 | 39.15 mPa·s
298.15 K, 101.3 kPa, x1 = 0.4 | 97.87 mPa·s
298.15 K, 101.3 kPa, x1 = 0.6 | 245.4 mPa·s
298.15 K, 101.33 kPa, x1 = 0.0093 | 1.051 mPa·s
298.15 K, 101.33 kPa, x1 = 0.0188 | 1.255 mPa·s
298.15 K, 101.33 kPa, x1 = 0.0414 | 1.875 mPa·s
298.15 K, 101.33 kPa, x1 = 0.069 | 3.24 mPa·s
298.15 K, 101.33 kPa, x1 = 0.1028 | 5.486 mPa·s
298.15 K, 101.33 kPa, x1 = 0.1469 | 10.34 mPa·s
298.15 K, 101.33 kPa, x1 = 0.2054 | 21.44 mPa·s
298.15 K, 101.33 kPa, x1 = 0.2884 | 48.78 mPa·s
298.15 K, 101.33 kPa, x1 = 0.4026 | 112.5 mPa·s
298.15 K, 101.33 kPa, x1 = 0.6059 | 262.4 mPa·s
298.15 K, 101.33 kPa, x1 = 0.8012 | 420.3 mPa·s
298.15 K, 101.33 kPa, x1 = 0.9438 | 524.1 mPa·s
303.15 K, 101 kPa, x1 = 0.0501 | 1.922 mPa·s
303.15 K, 101 kPa, x1 = 0.1004 | 4.138 mPa·s
303.15 K, 101 kPa, x1 = 0.1509 | 8.25 mPa·s
303.15 K, 101 kPa, x1 = 0.2006 | 14.47 mPa·s
303.15 K, 101 kPa, x1 = 0.3008 | 36.44 mPa·s
303.15 K, 101 kPa, x1 = 0.4014 | 72.38 mPa·s
303.15 K, 101 kPa, x1 = 0.5011 | 118.4 mPa·s
303.15 K, 101 kPa, x1 = 0.5957 | 166.7 mPa·s
303.15 K, 101 kPa, x1 = 0.6968 | 224.8 mPa·s
303.15 K, 101 kPa, x1 = 0.8034 | 279.7 mPa·s
303.15 K, 101 kPa, x1 = 0.9012 | 320.5 mPa·s
303.15 K, 101.3 kPa, x1 = 0.02 | 1.106 mPa·s
303.15 K, 101.3 kPa, x1 = 0.07 | 2.74 mPa·s
303.15 K, 101.3 kPa, x1 = 0.1 | 4.42 mPa·s and 8.008 mPa·s
303.15 K, 101.3 kPa, x1 = 0.2 | 15.32 mPa·s
303.15 K, 101.3 kPa, x1 = 0.3 | 31.19 mPa·s
303.15 K, 101.3 kPa, x1 = 0.4 | 73.47 mPa·s
303.15 K, 101.3 kPa, x1 = 0.6 | 162.7 mPa·s
303.15 K, 101.33 kPa, x1 = 0.068 | 2.542 mPa·s
308.15 K, 101 kPa, x1 = 0.04 | 1.455 mPa·s
308.15 K, 101 kPa, x1 = 0.0501 | 1.679 mPa·s
308.15 K, 101 kPa, x1 = 0.054 | 1.795 mPa·s
308.15 K, 101 kPa, x1 = 0.1004 | 3.502 mPa·s
308.15 K, 101 kPa, x1 = 0.1509 | 6.653 mPa·s
308.15 K, 101 kPa, x1 = 0.2006 | 11.56 mPa·s
308.15 K, 101 kPa, x1 = 0.3008 | 27.8 mPa·s
308.15 K, 101 kPa, x1 = 0.4014 | 53.45 mPa·s
308.15 K, 101 kPa, x1 = 0.5011 | 85.56 mPa·s
308.15 K, 101 kPa, x1 = 0.5957 | 119 mPa·s
308.15 K, 101 kPa, x1 = 0.6968 | 158.6 mPa·s
308.15 K, 101 kPa, x1 = 0.8034 | 197.1 mPa·s
313.15 K, 101 kPa, x1 = 0.054 | 1.585 mPa·s
313.15 K, 101.3 kPa, x1 = 0.02 | 0.896 mPa·s
313.15 K, 101.3 kPa, x1 = 0.2 | 10.02 mPa·s
313.15 K, 101.3 kPa, x1 = 0.3 | 17.89 mPa·s
313.15 K, 101.3 kPa, x1 = 0.4 | 41.02 mPa·s
313.15 K, 101.3 kPa, x1 = 0.6 | 88.54 mPa·s
313.15 K, 101.33 kPa, x1 = 0.0093 | 0.755 mPa·s
313.15 K, 101.33 kPa, x1 = 0.0188 | 0.878 mPa·s
313.15 K, 101.33 kPa, x1 = 0.019 | 0.898 mPa·s
313.15 K, 101.33 kPa, x1 = 0.041 | 1.28 mPa·s
313.15 K, 101.33 kPa, x1 = 0.0414 | 1.25 mPa·s
313.15 K, 101.33 kPa, x1 = 0.068 | 1.93 mPa·s
313.15 K, 101.33 kPa, x1 = 0.069 | 1.884 mPa·s
313.15 K, 101.33 kPa, x1 = 0.1469 | 5.522 mPa·s
313.15 K, 101.33 kPa, x1 = 0.2054 | 10.42 mPa·s
313.15 K, 101.33 kPa, x1 = 0.2884 | 21.56 mPa·s
313.15 K, 101.33 kPa, x1 = 0.4026 | 44.04 mPa·s
313.15 K, 101.33 kPa, x1 = 0.6059 | 95.06 mPa·s
313.15 K, 101.33 kPa, x1 = 0.8012 | 143.9 mPa·s
313.15 K, 101.33 kPa, x1 = 0.9438 | 175.3 mPa·s
323.15 K, 101 kPa, x1 = 0.041 | 1.08 mPa·s
323.15 K, 101 kPa, x1 = 0.15 | 4.27 mPa·s
323.15 K, 101 kPa, x1 = 0.34 | 20.7 mPa·s
323.15 K, 101.3 kPa, x1 = 0.02 | 0.747 mPa·s
323.15 K, 101.3 kPa, x1 = 0.04 | 1.063 mPa·s
323.15 K, 101.3 kPa, x1 = 0.07 | 1.604 mPa·s
323.15 K, 101.3 kPa, x1 = 0.2 | 6.501 mPa·s
323.15 K, 101.3 kPa, x1 = 0.3 | 12.21 mPa·s
323.15 K, 101.3 kPa, x1 = 0.4 | 24.08 mPa·s
323.15 K, 101.3 kPa, x1 = 0.6 | 52.49 mPa·s
323.15 K, 101.33 kPa, x1 = 0.068 | 1.469 mPa·s
